In patent publication US9745305B2, “Modulators of methyl modifying enzymes, compositions and uses thereof” (Constellation Pharmaceuticals, Inc., priority 2013, dated 2017):
pEC50, pIC50: −log10 of the molar value.

Columns and labels:
Y641N EZH2 = Y641N EZH2 (Homo sapiens, UniProt Q15910, Y641N); experiment: Assay for Y641N EZH2 (as the EZH2 assay, H3K27Me2 oligonucleosomes as substrate); assay type: biochemical; details: Y641N EZH2 mutant, reconstituted H3K27Me2 oligonucleosomes as substrate
Procedure, shortened: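 rPRC2 (2 nM EZH2) with 0.2 μM reconstituted H3K27Me2 biotinylated oligonucleosomes, 3.6 μM H3K27me3 peptide, 0.2 μM ^3H SAM in Tris pH 8.5; compounds (80 to 0.16 μM, 2-fold) pre-incubated 20 min, reaction 60 min, SAH/EDTA quench. Tritiated product captured on streptavidin plates, scintillation counted; IC50 from 4-parameter fit.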

EZH2 = EZH2 (Homo sapiens, UniProt Q15910); experiment: EZH2 Assay (3H SAM methyl transfer, rPRC2, FlashPlate); assay type: biochemical; details: rPRC2, biotinylated oligonucleosomes, 0.2 μM 3H SAM, 2 nM EZH2
EZH2, sequence (Q15910 whole entry): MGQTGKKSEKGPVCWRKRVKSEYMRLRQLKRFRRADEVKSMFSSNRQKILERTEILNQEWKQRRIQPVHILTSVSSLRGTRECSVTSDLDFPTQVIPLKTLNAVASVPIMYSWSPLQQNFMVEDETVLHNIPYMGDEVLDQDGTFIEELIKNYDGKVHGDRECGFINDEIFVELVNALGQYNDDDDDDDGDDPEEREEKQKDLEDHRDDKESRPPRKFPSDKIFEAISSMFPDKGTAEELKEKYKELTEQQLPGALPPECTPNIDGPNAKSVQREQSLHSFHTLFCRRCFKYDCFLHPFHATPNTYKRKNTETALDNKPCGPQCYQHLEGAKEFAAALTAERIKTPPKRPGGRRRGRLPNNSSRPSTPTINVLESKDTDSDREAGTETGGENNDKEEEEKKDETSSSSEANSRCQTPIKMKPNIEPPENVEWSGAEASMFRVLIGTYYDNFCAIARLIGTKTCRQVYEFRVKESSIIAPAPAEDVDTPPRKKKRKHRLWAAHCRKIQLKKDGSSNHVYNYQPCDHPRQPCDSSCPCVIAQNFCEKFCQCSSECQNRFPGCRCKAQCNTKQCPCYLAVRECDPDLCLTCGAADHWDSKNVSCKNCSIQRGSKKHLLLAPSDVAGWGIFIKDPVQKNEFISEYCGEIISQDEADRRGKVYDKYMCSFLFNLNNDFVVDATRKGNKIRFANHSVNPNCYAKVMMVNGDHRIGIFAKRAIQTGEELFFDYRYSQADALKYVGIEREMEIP
EZH2, sequence (O75530 whole entry partner): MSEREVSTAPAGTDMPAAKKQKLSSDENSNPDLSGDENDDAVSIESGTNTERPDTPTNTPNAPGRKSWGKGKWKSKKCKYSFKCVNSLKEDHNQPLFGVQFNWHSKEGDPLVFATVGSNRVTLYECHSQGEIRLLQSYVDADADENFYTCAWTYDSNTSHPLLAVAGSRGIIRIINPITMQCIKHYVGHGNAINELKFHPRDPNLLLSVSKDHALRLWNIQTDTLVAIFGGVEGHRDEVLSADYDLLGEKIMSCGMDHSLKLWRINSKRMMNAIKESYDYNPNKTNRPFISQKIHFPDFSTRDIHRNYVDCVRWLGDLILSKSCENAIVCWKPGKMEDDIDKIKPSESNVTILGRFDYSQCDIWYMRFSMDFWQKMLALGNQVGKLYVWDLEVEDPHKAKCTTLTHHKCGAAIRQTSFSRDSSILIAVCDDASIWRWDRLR
EZH2, sequence (Q15022 whole entry partner): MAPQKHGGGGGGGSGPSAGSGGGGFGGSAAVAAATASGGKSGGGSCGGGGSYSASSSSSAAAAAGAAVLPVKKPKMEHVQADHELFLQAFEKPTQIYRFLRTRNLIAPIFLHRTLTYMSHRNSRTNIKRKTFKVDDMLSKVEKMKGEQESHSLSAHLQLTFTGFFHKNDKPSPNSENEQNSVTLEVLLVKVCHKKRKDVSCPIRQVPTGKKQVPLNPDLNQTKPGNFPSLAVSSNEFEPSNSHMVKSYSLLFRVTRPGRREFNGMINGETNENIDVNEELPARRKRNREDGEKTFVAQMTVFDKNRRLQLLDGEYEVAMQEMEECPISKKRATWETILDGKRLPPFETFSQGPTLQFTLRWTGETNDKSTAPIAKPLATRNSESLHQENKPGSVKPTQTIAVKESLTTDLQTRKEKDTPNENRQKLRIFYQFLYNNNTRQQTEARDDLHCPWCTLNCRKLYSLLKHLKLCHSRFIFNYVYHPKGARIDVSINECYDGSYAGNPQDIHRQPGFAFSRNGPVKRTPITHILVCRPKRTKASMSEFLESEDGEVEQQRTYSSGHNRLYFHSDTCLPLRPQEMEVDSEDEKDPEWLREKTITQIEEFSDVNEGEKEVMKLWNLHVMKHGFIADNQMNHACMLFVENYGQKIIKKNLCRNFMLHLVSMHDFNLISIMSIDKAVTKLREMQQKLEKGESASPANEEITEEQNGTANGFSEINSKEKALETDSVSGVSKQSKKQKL
Procedure, shortened: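 rPRC2 (2 nM EZH2) was preincubated 20 min with compound (80 to 0.16 μM, 10 points), then reacted 60 min with 0.2 μM ³H-SAM, 0.2 μM biotinylated oligonucleosomes and 3.6 μM H3K27me3 peptide at pH 8.5. Methylated product was captured on SAV FlashPlates and counted, and IC50 came from a 4-parameter fit.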

[1] = tested on: H3K27me3 mark in Hela cells expressing wild type EZH2; experiment: H3K27me3 Alpha Hela Assay (AlphaLISA); assay type: cell-based; details: Homo sapiens, 72 hrs, read-out: H3K27me3_Alpha_HeLa (EC50)
Procedure: H3K27me3 Alpha Hela Assay (AlphaLISA). Ten different doses of each test compound (in a series of 3-fold dilutions) were plated in duplicate 384-well tissue culture treated plates (Catalog #781080; Greiner Bio One; Monroe, N.C.). Hela cells grown in culture were trypsinized and counted using a Countess® cell counter (Catalog # C10281; Life Technologies, Grand Island, N.Y.). Cell were diluted to 67,000 cells per mL in 10% DMEM (Catalog #10569-010 Life Technologies, Grand Island, N.Y.) and 15 μL (1,000 cells) were plated into each well using the Biotek MicroFlo™ Select Dispenser (BioTek Instruments, Inc. Vermont, USA),) of the 384-well plate. Plates were incubated at 37° C./5% CO2 for 72 hrs. One of the duplicate plates was processed for HeLa assay and the other for viability.
To the plate processed for AlphaLISA was added 5 μL per well Cell-Histone Lysis buffer (1×) (Catalog # AL009F1 Perkin Elmer; Waltham, Mass.) and the plate was incubated at RT for 30 minutes on a plate shaker with low speed (Model#4625-Q Thermo Scientific; Waltham, Mass.). Then, 10 μL per well Histone Extraction buffer (catalog # AL009F2; Perkin Elmer; Waltham, Mass.) was added and the plate further incubated at RT for 20 min on plate shaker with low speed. To each well was then added 10 μL per well of a 5× mix of anti-K27me3 acceptor beads plus Biotinylated anti-Histone H3 (C-ter) Antibody (diluted to 3 nM final) (Catalog #AL118 Perkin Elmer; Waltham, Mass.). Dilution of the acceptor beads and then anti-Histone H3 was with 1× Histone Detection buffer (Catalog # AL009F3 Perkin Elmer; Waltham, Mass.) which was produced diluted from the 10× stock provided. The plate was sealed with an aluminum plate sealer and incubated at 23° C. for 60 min. We then added 10 μL 5× solution of Streptavidin Donor beads (Catalog #6760002 Perkin Elmer; Waltham, Mass.) (20 μg/mL final in 1× Histone Detection Buffer), sealed the plate with Aluminum plate sealer and incubated at 23° C. for 30 min. The plates were then read using an EnVision-Alpha Reader (model #2104 Perkin Elmer; Waltham, Mass.).
Data from both assays was analyzed using Assay Assistant (Constellation Pharmaceuticals In-house product) and Activity Base (IDBS Ltd, Surrey, UK) template. Data files were imported to Assay Assistant and assay conditions were specified. A unique Analysis ID was created and the data files exported to Activity Base. An analysis template was created on Activity Base to measure dose-dependent inhibition of H3K27me3 mark and cell viability respectively. Readout of DMSO wells were used to normalize the data. Resulting curves were fitted using Activity base software Model 205 (IDBS Ltd, Surrey, UK). The data was checked for quality, validated and integrated in excel format using SARview (IDBS Ltd, Surrey, UK).

Y641N EZH2, sequence (Q15910 whole entry Y641N): as the sequence (Q15910 whole entry) above, with Y641N counted along it
Y641N EZH2, sequence (O75530 whole entry partner): as the sequence (O75530 whole entry partner) above
Y641N EZH2, sequence (Q15022 whole entry partner): as the sequence (Q15022 whole entry partner) above

| pIC50 (Y641N EZH2) | pIC50 (EZH2) | pEC50 [1] | SMILES |
| --- | --- | --- | --- |
| > 7.00 | > 7.00 | > 6.40 | COc1cc(C)[nH]c(=O)c1CNC(=O)c1c(C)c(C(C)c2ccccc2)n2ncccc12 (racemic) [Compound 101, (±)-N-((4-methoxy-6-methyl-2-oxo-1,2-dihydropyridin-3-yl)methyl)-6-methyl-7-(1-phenylethyl)pyrrolo[1,2-b]pyridazine-5-carboxamide] |
| > 7.00 | > 7.00 | > 6.40 | COc1cc(C)[nH]c(=O)c1CNC(=O)c1c(C)c(C(C)C2CCOCC2)n2ncccc12 (racemic) [Compound 116, (±)-N-((4-methoxy-6-methyl-2-oxo-1,2-dihydropyridin-3-yl)methyl)-6-methyl-7-(1-(tetrahydro-2H-pyran-4-yl)ethyl)pyrrolo[1,2-b]pyridazine-5-carboxamide] |
| > 7.00 | > 7.00 | > 6.40 | COc1cc(C)[nH]c(=O)c1CNC(=O)c1c(C)c(C(C)c2ccccc2)n2ncccc12 (single isomer, unassigned) [Compound 105, (R or S)-N-((4-methoxy-6-methyl-2-oxo-1,2-dihydropyridin-3-yl)methyl)-6-methyl-7-(1-phenylethyl)pyrrolo[1,2-b]pyridazine-5-carboxamide] |
